{"source": "patent US7943584B2", "about": "“Medicinal composition containing diabetes remedy” (Sankyo Company, Limited, priority 2004, dated 2011)", "target": "T1, human pancreatic α-amylase (HPA) (Homo sapiens, UniProt P04746)", "T1 construct": "purchased International Reagents Co., Ltd. Calibzyme AMY", "T1 sequence (P04746 16-511)": "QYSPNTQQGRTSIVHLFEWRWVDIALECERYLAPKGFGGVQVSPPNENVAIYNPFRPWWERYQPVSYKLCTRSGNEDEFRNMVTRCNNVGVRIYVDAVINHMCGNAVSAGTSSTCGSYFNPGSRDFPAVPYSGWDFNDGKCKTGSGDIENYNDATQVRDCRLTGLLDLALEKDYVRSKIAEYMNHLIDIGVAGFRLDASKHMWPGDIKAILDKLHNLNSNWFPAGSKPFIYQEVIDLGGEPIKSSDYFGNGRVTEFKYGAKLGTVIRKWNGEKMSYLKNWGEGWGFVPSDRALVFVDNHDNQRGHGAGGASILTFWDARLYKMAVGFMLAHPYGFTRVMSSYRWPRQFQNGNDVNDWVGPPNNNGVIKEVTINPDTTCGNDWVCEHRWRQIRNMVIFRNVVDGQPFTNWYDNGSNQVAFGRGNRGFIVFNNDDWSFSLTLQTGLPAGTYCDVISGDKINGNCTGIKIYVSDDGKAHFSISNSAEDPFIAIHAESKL", "experiment": "α-Amylase inhibitory action (Blue Starch, Neo Amylase Test)", "type": "biochemical", "details": "final concentration required for 50% inhibition of HPA solution, 37° C.", "experimental": "α-Amylase Inhibitory Action\n(1) Preparation of Human α-Amylase Solution\nCalibzyme AMY (International Reagents Co., Ltd.) was used for the human pancreatic α-amylase (HPA). Distilled water was added to the commercially available HPA and dissolved to a concentration of 200 IU/l to prepare the α-amylase solution. The activity of the α-amylase was measured using a commercially available α-amylase assay reagent (Neo Amylase Test Daiichi, Daiichi Pure Chemicals Co., Ltd.).\n(2) Preparation of Inhibitory Solutions\nEach test compound was prepared with distilled water to a final concentration of 0.1 to 30 μg/ml.\n(3) Measurement of Human α-Amylase Inhibitory Activity of Inhibitory Solutions\nAfter incubating for 10 minutes at 37° C., a Blue Starch tablet (Neo Amylase Test Daiichi, Daiichi Pure Chemicals Co., Ltd.) was added followed by stirring for about 10 seconds with a mixer, and the mixture was then heated for 30 minutes at 37° C. […] In addition, a mixture to which distilled water was added instead of α-amylase solution was used as a blank.", "data": [{"smiles": "COC[C@H]1O[C@@H](O[C@H]2[C@H](O)[C@@H](O)C(O[C@H]3[C@H](O)CN[C@@H]3CO)O[C@@H]2CO)[C@H](O)[C@@H](O)[C@@H]1O", "note": "(stereo partly drawn) [Reference Example 8, (2R,3R,4R)-4-Hydroxy-2-hydroxymethylpyrrolidin-3-yl 4-O-(6-methoxy-6-deoxy-β-D-glucopyranosyl)-D-glucopyranoside]", "values": [{"measurement": "IC50", "value": 848, "unit": "nM"}]}]}
